Where two headings read alike, the source gives them in different places.
What was measured:
[1] = test system: activated caspase-3 in hippocampus; assay: Hippocampal activated caspase-3 immunohistochemistry after anesthetic gas exposure
Protocol: (§1) 7 day old Sprague-Dawley rat pups were placed in individual wells of a custom-built anesthetic chamber, and randomised to groups A-F to receive one of 6 gas combinations for 6 hours. Previous work has established that NMDA receptor antagonists have their maximal neurodegenerative affect 7 days after birth (Ikonomidou et al., 1999).
(§2) Group B received 75% nitrous oxide and 25% oxygen as delivered by a calibrated anesthetic machine, whereas group C received 75% xenon along with 25% oxygen through a customised anesthetic machine modified for xenon delivery (Ohmeda, modified by Air Products, Surrey, UK). Group D were exposed to 25% oxygen along with 0.75% isoflurane. The remaining 2 groups were exposed to combinations of gases—namely 25% oxygen+75% nitrous oxide+0.75% isoflurane (group E) and 25% oxygen+60% xenon+15% nitrogen+0.75% isoflurane (group F). The high cost of xenon precludes its use in an open-circuit, consequently group C and group F received gases using a closed-circuit system, whereas gases for all other groups were delivered in a high-flow open-circuit.
(§3) Rats destined for immunohistochemistry were sacrificed with 100 mg kg^−1 sodium pentobarbital IP immediately post-anesthesia, whereas those rats for DeOlmos silver staining were allowed to recover for 18 hrs before undergoing the same procedure. A thoracotomy was performed, and the aorta cannulated via a needle inserted into the apex of the heart. The pup was then perfused with 10 ml of 1% heparin solution, with the excess solution leaving through an incision in the right atrium. To fix the tissues, 20 ml of 4% paraformaldehyde in 0.1M phosphate buffer was injected by the same transcardial route. The whole brain was then removed and allowed to fix in paraformaldehyde perfusate and refrigerated at 4° C. 24 hours later, the brains were transferred to a solution of 30% sucrose with phosphate buffer and 1% sodium azide, and were kept refrigerated until the brains sank (approximately 48 hours).
(§4) Once processed, a block was cut to safely include the area of interest—a coronal section −3.6 mm from the bregma (FIG. 1B). The blocks were then embedded and frozen into O.C.T. solution. The block was then cut coronally into approximately 120 slices, each 30 μm thick, with a cryostat (Bright Instrument Company Ltd., Huntingdon, UK). The cut sections were transferred to a 6 well plate containing phosphate buffered saline (PBS).
A random well from each cut block, each containing around 20 representative slices of the total block, was transferred to a marked silk-bottomed well using a 3 ml Pasteur pipette. The sections were then washed in 5 ml of PBS for 5 min on a shaker set at 75 rpm. This washing procedure was repeated twice more, replacing the PBS each time. […]

[2] = test system: activated caspase-3 in cortex; assay: Cortical activated caspase-3 immunohistochemistry after anesthetic gas exposure
Protocol: as §1, §2, §3, §4
A random well from each cut block, each containing around 20 representative slices of the total block, was transferred to a marked silk-bottomed well using a 3 ml Pasteur pipette. The sections were then washed in 5 ml of PBS for 5 min on a shaker set at 75 rpm. This washing procedure was repeated twice more, replacing the PBS each time. To quench the sections, they were incubated at room temperature on a shaker for 30 min in a solution comprising 35 ml methanol, 15 ml of PBS and 500 μl of stock 30% H2O2.
The quenching solution was then removed, and the sections washed three times in PBS. Sections were blocked for 60 min at room temperature with 50 ml of PBST (PBS containing 0.5% Triton-X (Promega Corporation, Madison, Wis.)), and 1500 μl of normal goat serum (NGS) (Vector Laboratories Inc., Burlingame, Calif.). For incubation with the primary antibody, the sections were kept overnight at 4° C. on a shaker set at 50 rpm in a solution made up of […] rabbit anti-cleaved caspase-3 antibody (New England Biolabs, Hertfordshire, UK), 50 ml of PBST and 500 μl of NGS. […]

pure neuronal cultures = assay: FACS assessment of necrotic, viable and apoptotic cell populations after preconditioning and oxygen glucose deprivation
Protocol: Neuronal cells were harvested from 19 day old embryonic mice by cesarean section for pregnant BALB/c mice. 6-9 mouse brains were removed from fetal mice and dissected to isolate whole cerebral neocortices devoid of the hippocampus, basal ganglia and meninges. Again throughout the micro dissection process, brain tissues were kept in 4° C. HSG solution. […] The cells were plated at a density of 1.2×10^5 cells, per cm^2 on 24-multiwell plates (Cater, Cambridge, Mass.) and the cultures were maintained at 37° C. in a humidified 5% CO2 environment. Neurobasal Media supplemented with B27, glutamine and AAS was used to resuspend the neuronal cells and as culture medium. For every 10 ml of Neurobasal Media, the following supplements were added: 200 μl B27, 100 μl antibiotic and 25 μl glutamine. Medium replacement for these cells was performed on day 2, 5 and 7 with pre-warmed 37° C. culture medium (Neurobasal Media, B27, Glutamine and AAS). On day 5 after neuronal plating, 100 μl/10 ml cytosine arabinoside (CA hydrochloride, Sigma) was added to the cell cultures to halt non-neuronal cell division. Neuronal cell cultures were ready to use on day 7.
Cells were preconditioned using a purpose built 1.4 liter airtight, temperature controlled gas chambers. The chambers had inlet and outlet valves and an internal electric fan to ensure effective and continuous delivery of gases. Gas flow rate was 100 ml/min, and so chambers were flushed and allowed to equilibrate for 45 minutes before establishing a closed system. Cells were preconditioned for 2 hours inside the closed system with the appropriate gas concentrations using flow meters. Sevoflurane was delivered using a vaporiser (Datex-Ohmeda).
To model ischaemic damage in the brain, neuronal cells were subjected to oxygen glucose deprivation. Twenty four hours after preconditioning cells, cultures were washed twice with HEPES buffer solution (120 mM NaCl, 5.4 mM KCL, 0.8 mM MgCl2, 15 mM glucose and 20 mM HEPES, titrated to pH 7.4 using 1M NaOH). […] The cells were exposed to this anoxic environment for 75 minutes. Oxygen glucose deprivation was terminated by removing the cultures from the gas chamber and changing the media; cultures destined for lactate dehydrogenase (LDH) assay were washed once and replaced with Eagle's minimal essential medium enhanced with 25 mM glucose and 38 mM NaHCO3, whereas pure neuronal cultures for FACS were washed once and replaced with Neurobasal Media supplemented with B27, glutamine and AAS.
Twenty fours hours after oxygen glucose deprivation, cells were stained for FACS analysis. The culture medium was removed and washed twice with HEPES buffer solution. […] Cells were then washed twice with 1×BB, and then 0.8 μg/ml propidium iodide (Sigma-Aldrich, Poole, UK) in 1% fetal bovine serum (FBS) in phosphate buffer solution (PBS) was added and left to incubate on ice for 5 minutes. […] 800 μl 1% FBS in PBS was then added to stop the reaction, cells were removed and added to tubes for centrifugation at 1200 g for 10 minutes. The supernatant was discarded and the cells were re-suspended with 300 μl 1% FBS in PBS. Steps, if possible, were performed on ice to reduce the amount of neuronal death.
A FACSCalibur (Becton Dickinson, Sunnyvale, Calif.) with a single argon laser was used for flow cytometric analysis. […] At least 10,000 cells per sample were analysed.

[3] = in vivo; cited from earlier work
[4] = test system: neuronal glial co-culture; assay: LDH release after preconditioning and oxygen glucose deprivation, neuronal glial co-culture; format: cell-based, mouse; conditions: for LDH release following oxygen glucose deprivation: 2 h preconditioning
Protocol: The pups were anaesthetised with isoflurane and then decapitated with the heads placed immediately into 4° C. HSG solution, an isotonic, high sucrose glucose solution made primarily from Hank's balanced salt solution (HBSS, GibroBRL) enhanced with NaHCO3 (0.04 M), sucrose (0.2 M) and D-Glucose (0.3 M) also containing antibiotic-anti-mycotic solution (AAS, GibroBRL). […] HSG solution.
The brain tissue was then immersed in 0.25% trypsin and was placed in a shaking air chamber for 50 minutes at 37° C. filled with 5% CO2 and 95% room air. DNase was then added to the mixture and placed back into the shaking air chamber for a further 15 minutes. The mixture was then centrifuged at 1600 rpm for 10 minutes at 4° C. and the supernatant was carefully discarded. The cells were then resuspended and then plated at a density of 6.25×10^4 cells/cm^2 on 24-multiwell plates (Costar, Cambridge, Mass.) and cultured in a medium consisting of Eagle's minimum essential medium augmented with 20 mM glucose, 26 mM NaHCO3, 10% foetal bovine serum, 10% heat-inactivated horse serum, AAS (Gibco, Paisley, UK), 2 mM glutamine (Sigma, Poole, UK) and 10 ng/ml murine epidermal growth factor (EGF) (GibcoBRL). Glial cells reached confluence about one week after plating.
Using a similar procedure cortical neuronal cells were obtained from fetal BALB/c mice at 14-16 days of gestation and plated at a density of 1.25×10^5 cells per cm^2 on the confluent monolayer of glial cells derived from the corresponding genetic strain. Neuronal cells reached confluence 10 days after plating.
Sevoflurane was delivered using a vaporiser (Datex-Ohmeda).
The amount of neuronal damage was assessed by the amount of LDH released into the culture medium, using a standardised colorimetric enzyme kit (Sigma, Poole, UK). This technique has been previously described (Wilhelm et al 2002). LDH assessment was performed 16 hours after oxygen glucose deprivation (FIG. 8).

[5] = Sprague-Dawley, rat, in vivo, 6 h
[6] = 7 day old Sprague-Dawley rats, 6 h exposure with 25% oxygen, 75% N2O, 75% xenon, 0.75% isoflurane, 75% N2O+0.75% isoflurane, 60% xenon+0.75% isoflurane, air control 19.3±6.4
[7] = 12.5% xenon, 0.67% sevoflurane or their combination as preconditioning, then oxygen glucose deprivation

With FC(F)OC(Cl)C(F)(F)F (centres unmarked) [isoflurane] the “increase in the level of apoptosis in the hippocampus vs controls” value [1, 5] was 4 fold, the “number of caspase-3 positive cells in hippocampus (mean±SD)” value (from here on “number … in hippocampus (mean±SD)”) [1, 5] was 22.1±9.6 and the “increase in the level of apoptosis in the cortex vs controls” value ([2]; 0.75% isoflurane or 75% N2O+0.75% isoflurane, neonatal rats) was 4 fold. The “number of caspase-3 positive cells in cortex (mean±SD)” value (from here on “number … in cortex (mean±SD)”) [2, 6] was 76.5±11.4.
With FCOC(C(F)(F)F)C(F)(F)F [sevoflurane] the apoptotic cell population (pure neuronal cultures; [7]) was 17+/−1%, the viable cell population (pure neuronal cultures; [7]) was 9% and the necrotic cell population (pure neuronal cultures; 12.5% xenon, 0.67% sevoflurane or their combination as preconditioning, then oxygen glucose deprivation, sham 70+/−2%, control 17+/−1%) was 81+/−2%. For the same compound, the “degenerating neurons, positive cells” value ([2]; 1.5% sevoflurane alone, control value 20.0±2, brain region not stated) was 42±2 positive cells, the “atmosphere sufficient to maintain anesthesia” value [3] was “about 2.5%” and the “concentration producing a significant reduction in LDH release” value ([4]; 2 h preconditioning followed by OGD) was “greater than 1.9%”. The “LDH release following oxygen glucose deprivation” value ([4]; sevoflurane at 0.67%, ineffective) was 97+/−5 % of controls, the “LDH release following oxygen glucose deprivation” value ([4]; sevoflurane at 1.3%) was 100+/−11 % of controls and the “LDH release following oxygen glucose deprivation” value ([4]; sevoflurane at 2.7%, p<0.05) was 64+/−6 % of control. The “LDH release following oxygen glucose deprivation” value ([4]; sevoflurane at 3.3%, p<0.001) was 37+/−5 % of controls.
For [Xe] [xenon], the necrotic cell population (pure neuronal cultures) was 75+/−2%, the apoptotic cell population (pure neuronal cultures; [7]) was 9+/−1% and the viable cell population (pure neuronal cultures; [7]) was 9%. The “number … in hippocampus (mean±SD)” value ([1]; 7 day old Sprague-Dawley rats, 6 h exposure with 25% oxygen, 75% N2O, 75% xenon, 0.75% isoflurane, 75% N2O+0.75% isoflurane, 60% xenon+0.75% isoflurane, controls 5.2±1.8) was 5.0±3.2, the “number … in cortex (mean±SD)” value [2, 6] was 19.7±9.6 and the “atmosphere sufficient to induce or maintain anesthesia” value [3] was “about 70%”. The “LDH release following oxygen glucose deprivation” value ([4]; xenon at 12.5%, not significant) was 83+/−7 % of controls, the “LDH release following oxygen glucose deprivation” value ([4]; xenon at 25%, not significant) was 70+/−11 % of controls and the “LDH release following oxygen glucose deprivation” value ([4]; xenon at 50%, p<0.05) was 55+/−12 % of control values. The “LDH release following oxygen glucose deprivation” value ([4]; xenon at 75%, p<0.05) was 49+/−12 % of control values.
For [N-]=[N+]=O [N2O, nitrous oxide], the “number … in hippocampus (mean±SD)” value [1, 5] was 3.7±1.4 and the “number … in cortex (mean±SD)” value [2, 5] was 22.5±5.9.

From US9326996B2, “Use of xenon as neuroprotectant in a neonatal subject” (IMPERIAL INNOVATIONS LIMITED, priority 2004, dated 2016)
